Assay results as given in the supplement of paper PMC10307832.

Compound: CC1=NN=C(O1)C2=NN=C(C=C2)N3CCC(CC3)OC4=C(C=CC(=C4)F)Cl + CS(=O)(=O)N1CCN(Cc2cc3nc(-c4cccc5[nH]ncc45)nc(N4CCOCC4)c3s2)CC1 [Pictilisib] (partner 1 µM)
Experiment: relative viability (nuclei count vs DMSO), 5 days (fraction); higher = more cells survive
Conditions: first compound 2.53 µM
Outline: (§1)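 Five library-drug doses in √10 steps were combined with a fixed anchor-drug dose, or a single drug was given alone, by pin tool to lung cancer cell lines in 1536-well plates the day after seeding. Nuclei were stained and counted after 5 days. Relative viability is the nuclei count in treated wells over that in vehicle wells, taken as the median of duplicate plates.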

First: COR-L 105
Second: IA-LM
The relative viability of the first is higher: 0.334 for the first, 0.203 for the second.

Going from LU99A to ChaGo-K-1, the relative viability rises from 0.304 to 0.508.

First: NCI-H2170
Second: NCI-H460
The relative viability of the first is higher: 0.368 for the first, 0.232 for the second.

Compared with HOP-62, HCC-44 is lower in relative viability: 0.645 for the first, 0.578 for the second.

Going from A549 to LXF-289, the relative viability rises from 0.319 to 0.687.

Compared with NCI-H661, NCI-H2023 is lower in relative viability: 0.376 for the first, 0.308 for the second.

Compared with NCI-H1299, CAL-12T is lower in relative viability: 0.71 for the first, 0.327 for the second.

NCI-H2009 and NCI-H1563 are the same in relative viability: 0.659 for the first, 0.659 for the second.

Compared with NCI-H520, NCI-H2228 is higher in relative viability: 0.29 for the first, 0.538 for the second.

With NCI-H1650 the relative viability was 0.554.

Same assay, conditions: first compound 8 µM

Going from SK-LU-1 to NCI-H1703, the relative viability falls from 0.42 to 0.279.

First: EBC-1
Second: NCI-H1792
The relative viability of the first is lower: 0.408 for the first, 0.411 for the second.

Going from NCI-H2087 to NCI-H596, the relative viability falls from 0.66 to 0.363.

Going from NCI-H1355 to SW 1573, the relative viability rises from 0.374 to 0.383.

Compared with LCLC-103H, NCI-H727 is lower in relative viability: 0.473 for the first, 0.403 for the second.

Going from NCI-H2405 to EMC-BAC-2, the relative viability rises from 0.385 to 0.454.

First: NCI-H23
Second: Calu-6
The relative viability of the first is lower: 0.463 for the first, 0.696 for the second.

First: HCC-366
Second: NCI-H1755
The relative viability of the first is lower: 0.142 for the first, 0.387 for the second.

Going from NCI-H838 to LK-2, the relative viability rises from 0.416 to 0.751.

Going from NCI-H2347 to SK-MES-1, the relative viability falls from 0.753 to 0.384.

First: H3255
Second: COR-L23
The relative viability of the first is lower: 0.397 for the first, 0.469 for the second.

Going from COR-L 105 to IA-LM, the relative viability falls from 0.378 to 0.187.

Compared with LU99A, ChaGo-K-1 is higher in relative viability: 0.34 for the first, 0.548 for the second.

Compared with NCI-H2170, NCI-H460 is lower in relative viability: 0.274 for the first, 0.221 for the second.

First: HOP-62
Second: HCC-44
The relative viability of the first is lower: 0.331 for the first, 0.472 for the second.

Going from A549 to LXF-289, the relative viability rises from 0.234 to 0.6.

First: NCI-H661
Second: NCI-H2023
The relative viability of the first is higher: 0.366 for the first, 0.18 for the second.

Going from NCI-H1299 to CAL-12T, the relative viability falls from 0.713 to 0.191.

Going from NCI-H2009 to NCI-H1563, the relative viability falls from 0.637 to 0.633.

Going from NCI-H520 to NCI-H2228, the relative viability rises from 0.316 to 0.404.

Cell Line NCI-H1650 has a relative viability of 0.561.

Compound: CC1=NN=C(O1)C2=NN=C(C=C2)N3CCC(CC3)OC4=C(C=CC(=C4)F)Cl + NC(=O)Nc1cc(-c2cccc(F)c2)sc1C(=O)N[C@H]1CCCNC1 [AZD7762] (partner 0.2 µM)
Experiment: as above
Conditions: first compound 0.253 µM
Outline: as §1

Going from NCI-H522 to NCI-H1703, the relative viability falls from 0.9 to 0.097.

First: NCI-H1792
Second: NCI-H2087
The relative viability of the first is lower: 0.535 for the first, 0.903 for the second.

First: NCI-H596
Second: NCI-H1355
The relative viability of the first is higher: 0.975 for the first, 0.571 for the second.

Compared with LCLC-103H, NCI-H727 is higher in relative viability: 0.62 for the first, 0.823 for the second.

First: NCI-H2405
Second: EMC-BAC-2
The relative viability of the first is lower: 0.684 for the first, 1.07 for the second.

Going from NCI-H23 to HCC-366, the relative viability falls from 0.191 to 0.118.

First: NCI-H1755
Second: NCI-H838
The relative viability of the first is lower: 0.442 for the first, 0.74 for the second.

Compared with LK-2, NCI-H2347 is lower in relative viability: 0.622 for the first, 0.56 for the second.

Compared with NCI-H2342, H3255 is higher in relative viability: 0.417 for the first, 0.633 for the second.

Going from LU99A to ChaGo-K-1, the relative viability rises from 0.349 to 0.588.

Compared with NCI-H2170, NCI-H460 is lower in relative viability: 0.343 for the first, 0.215 for the second.

Going from HOP-62 to HCC-44, the relative viability falls from 0.556 to 0.388.

Compared with LXF-289, NCI-H1648 is lower in relative viability: 0.898 for the first, 0.434 for the second.

CAL-12T was tested, and the relative viability was 0.637.

Same assay, conditions: first compound 0.8 µM

Going from NCI-H522 to NCI-H1703, the relative viability falls from 0.879 to 0.129.

Compared with NCI-H1792, NCI-H2087 is higher in relative viability: 0.574 for the first, 0.906 for the second.

Going from NCI-H596 to NCI-H1355, the relative viability falls from 0.853 to 0.385.

Compared with LCLC-103H, NCI-H727 is lower in relative viability: 0.657 for the first, 0.597 for the second.

Going from NCI-H2405 to EMC-BAC-2, the relative viability rises from 0.684 to 0.929.

Going from NCI-H23 to HCC-366, the relative viability falls from 0.192 to 0.144.

Compared with NCI-H1755, NCI-H838 is higher in relative viability: 0.428 for the first, 0.778 for the second.

Compared with LK-2, NCI-H2347 is higher in relative viability: 0.366 for the first, 0.572 for the second.

Compared with NCI-H2342, H3255 is higher in relative viability: 0.415 for the first, 0.663 for the second.

First: LU99A
Second: ChaGo-K-1
The relative viability of the first is lower: 0.341 for the first, 0.529 for the second.

First: NCI-H2170
Second: NCI-H460
The relative viability of the first is higher: 0.346 for the first, 0.189 for the second.

First: HOP-62
Second: HCC-44
The relative viability of the first is lower: 0.22 for the first, 0.609 for the second.

Going from SW 900 to LXF-289, the relative viability rises from 0.563 to 0.757.

Going from NCI-H1648 to CAL-12T, the relative viability rises from 0.532 to 0.586.

Same assay, conditions: first compound 2.53 µM

First: NCI-H522
Second: NCI-H1703
The relative viability of the first is higher: 0.857 for the first, 0.153 for the second.

Going from NCI-H1792 to NCI-H2087, the relative viability rises from 0.689 to 0.953.

Going from NCI-H596 to NCI-H1355, the relative viability falls from 0.97 to 0.773.

First: LCLC-103H
Second: NCI-H727
The relative viability of the first is higher: 0.633 for the first, 0.623 for the second.

First: NCI-H2405
Second: EMC-BAC-2
The relative viability of the first is lower: 0.627 for the first, 1.1 for the second.

Going from NCI-H23 to HCC-366, the relative viability falls from 0.288 to 0.225.

Going from NCI-H1755 to NCI-H838, the relative viability rises from 0.465 to 0.918.

Compared with LK-2, NCI-H2347 is higher in relative viability: 0.308 for the first, 0.637 for the second.

Going from NCI-H2342 to H3255, the relative viability rises from 0.479 to 0.628.

Compared with LU99A, ChaGo-K-1 is higher in relative viability: 0.57 for the first, 0.705 for the second.

Compared with NCI-H2170, NCI-H460 is lower in relative viability: 0.472 for the first, 0.26 for the second.

Compared with HOP-62, HCC-44 is higher in relative viability: 0.452 for the first, 0.495 for the second.

First: SW 900
Second: LXF-289
The relative viability of the first is lower: 0.596 for the first, 1.12 for the second.

Compared with NCI-H1648, CAL-12T is higher in relative viability: 0.6 for the first, 0.606 for the second.

Same assay, conditions: first compound 8 µM

First: NCI-H522
Second: NCI-H1703
The relative viability of the first is higher: 0.715 for the first, 0.0983 for the second.

Compared with NCI-H1792, NCI-H2087 is higher in relative viability: 0.472 for the first, 0.704 for the second.

Compared with NCI-H596, NCI-H1355 is lower in relative viability: 0.946 for the first, 0.692 for the second.

First: LCLC-103H
Second: NCI-H727
The relative viability of the first is higher: 0.631 for the first, 0.555 for the second.

Compared with NCI-H2405, EMC-BAC-2 is higher in relative viability: 0.654 for the first, 1.03 for the second.

First: NCI-H23
Second: HCC-366
The relative viability of the first is higher: 0.206 for the first, 0.173 for the second.

First: NCI-H1755
Second: NCI-H838
The relative viability of the first is lower: 0.418 for the first, 0.787 for the second.

First: LK-2
Second: NCI-H2347
The relative viability of the first is lower: 0.294 for the first, 0.489 for the second.
